Laboratory results taken from article PMC11769294, “(E)-1-(3-(3-Hydroxy-4-Methoxyphenyl)-1-(3,4,5-Trimethoxyphenyl)allyl)-1H-1,2,4-Triazole and Related Compounds: Their Synthesis and Biological Evaluation as Novel Antimitotic Agents Targeting Breast Cancer” (Pharmaceuticals, 2025).
“And” between values parts separate entries of the source, which are not always exact repeats. Identical values can stand only once.

Columns and labels:
Format in all cases: cell-based, human
[1] = system: NCI/ADR-RES (Ovarian Cancer); assay: NCI60 screen (SRB); settings: one dose 10 µM, 48 h
SK-MEL-5 (Melanoma) = assay: NCI60 screen (SRB); settings: one dose 10 µM, 48 h
SF-268 (CNS Cancer) = assay: NCI60 screen (SRB); settings: one dose 10 µM, 48 h
leukemia panel = assay: NCI60 screen (SRB), panel mean; settings: one dose 10 µM, 48 h
[2] = system: NCI-H226 (Non-Small Cell Lung Cancer); assay: NCI60 screen (SRB); settings: one dose 10 µM, 48 h
SNB-75 (CNS Cancer) = assay: NCI60 screen (SRB); settings: one dose 10 µM, 48 h
[3] = system: NCI-H23 (Non-Small Cell Lung Cancer); assay: NCI60 screen (SRB); settings: one dose 10 µM, 48 h
SW-620 (Colon Cancer) = assay: NCI60 screen (SRB); settings: one dose 10 µM, 48 h
ACHN (Renal Cancer) = assay: NCI60 screen (SRB); settings: one dose 10 µM, 48 h
[4] = system: EKVX (Non-Small Cell Lung Cancer); assay: NCI60 screen (SRB); settings: one dose 10 µM, 48 h
HT29 (Colon Cancer) = assay: NCI60 screen (SRB); settings: one dose 10 µM, 48 h
MCF7 (Breast Cancer) = assay: NCI60 screen (SRB); settings: one dose 10 µM, 48 h
MALME-3M (Melanoma) = assay: NCI60 screen (SRB); settings: one dose 10 µM, 48 h
HS 578T (Breast Cancer) = assay: NCI60 screen (SRB); settings: HS 578T; one dose 10 µM; 48 h
CAKI-1 (Renal Cancer) = assay: NCI60 screen (SRB); settings: one dose 10 µM, 48 h
HL-60 (TB) (Leukemia) = assay: NCI60 screen (SRB); settings: HL-60 (TB); one dose 10 µM; 48 h
T-47D (Breast Cancer) = assay: NCI60 screen (SRB); settings: one dose 10 µM, 48 h
KM12 (Colon Cancer) = assay: NCI60 screen (SRB); settings: one dose 10 µM, 48 h
PC-3 (Prostate Cancer) = assay: NCI60 screen (SRB); settings: one dose 10 µM, 48 h
OVCAR-3 (Ovarian Cancer) = assay: NCI60 screen (SRB); settings: one dose 10 µM, 48 h
M14 (Melanoma) = assay: NCI60 screen (SRB); settings: one dose 10 µM, 48 h
[5] = system: MDA-MB-468 (Breast Cancer); assay: NCI60 screen (SRB); settings: one dose 10 µM, 48 h
786-0 (Renal Cancer) = assay: NCI60 screen (SRB); settings: one dose 10 µM, 48 h
[6] = system: A549/ATCC (Non-Small Cell Lung Cancer); assay: NCI60 screen (SRB); settings: one dose 10 µM, 48 h
OVCAR-8 (Ovarian Cancer) = assay: NCI60 screen (SRB); settings: one dose 10 µM, 48 h
TK-10 (Renal Cancer) = assay: NCI60 screen (SRB); settings: one dose 10 µM, 48 h
SK-MEL-28 (Melanoma) = assay: NCI60 screen (SRB); settings: one dose 10 µM, 48 h
SK-MEL-2 (Melanoma) = assay: NCI60 screen (SRB); settings: one dose 10 µM, 48 h
SF-539 (CNS Cancer) = assay: NCI60 screen (SRB); settings: one dose 10 µM, 48 h
RXF 393 (Renal Cancer) = assay: NCI60 screen (SRB); settings: one dose 10 µM, 48 h
HCT-116 (Colon Cancer) = assay: NCI60 screen (SRB); settings: one dose 10 µM, 48 h
OVCAR-5 (Ovarian Cancer) = assay: NCI60 screen (SRB); settings: one dose 10 µM, 48 h
K-562 (Leukemia) = assay: NCI60 screen (SRB); settings: one dose 10 µM, 48 h
A498 (Renal Cancer) = assay: NCI60 screen (SRB); settings: one dose 10 µM, 48 h
UACC-62 (Melanoma) = assay: NCI60 screen (SRB); settings: one dose 10 µM, 48 h
SF-295 (CNS Cancer) = assay: NCI60 screen (SRB); settings: one dose 10 µM, 48 h
SN12C (Renal Cancer) = assay: NCI60 screen (SRB); settings: one dose 10 µM, 48 h
BT-549 (Breast Cancer) = assay: NCI60 screen (SRB); settings: one dose 10 µM, 48 h
[7] = system: HOP-92 (Non-Small Cell Lung Cancer); assay: NCI60 screen (SRB); settings: one dose 10 µM, 48 h
HCC-2998 (Colon Cancer) = assay: NCI60 screen (SRB); settings: one dose 10 µM, 48 h
LOX IMVI (Melanoma) = assay: NCI60 screen (SRB); settings: one dose 10 µM, 48 h
RPMI-8226 (Leukemia) = assay: NCI60 screen (SRB); settings: one dose 10 µM, 48 h

Q: Which results are given for `COc1ccc(C2CC(n3ccnc3)c3cc(OC)c(OC)c(OC)c32)cc1O` (stereo not drawn) [Compound 27a, 5-(3-(1H-Imidazol-1-yl)-5,6,7-trimethoxy-2,3-dihydro-1H-inden-1-yl)-2-methoxyphenol]?
A: growth percent [1]: 93.87%; growth percent (SK-MEL-5 (Melanoma)): 53.15%; growth percent (SF-268 (CNS Cancer)): 89.96%; mean growth percentage (leukemia panel): 73.2%; growth percent [2]: 97.37%; growth percent (SNB-75 (CNS Cancer)): 90.16%; growth percent [3]: 91.50%; growth percent (SW-620 (Colon Cancer)): 62.47%; growth percent (ACHN (Renal Cancer)): 86.36%; growth percent [4]: 100.83%; growth percent (HT29 (Colon Cancer)): 101.76%; growth percent (MCF7 (Breast Cancer)): 44.8% and 44.77%; growth percent (MALME-3M (Melanoma)): 73.18%; growth percent (HS 578T (Breast Cancer)): 85.38%; growth percent (CAKI-1 (Renal Cancer)): 74.50%; growth percent (HL-60 (TB) (Leukemia)): 83.57%; growth percent (T-47D (Breast Cancer)): 94.34%; growth percent (KM12 (Colon Cancer)): 50.59%; growth percent (PC-3 (Prostate Cancer)): 60.69%; growth percent (OVCAR-3 (Ovarian Cancer)): 57.06%; growth percent (M14 (Melanoma)): 73.08%; growth percent [5]: 78.64%; growth percent (786-0 (Renal Cancer)): 91.67%; growth percent [6]: 55.83%; growth percent (OVCAR-8 (Ovarian Cancer)): 89.25%; growth percent (TK-10 (Renal Cancer)): 101.23%; growth percent (SK-MEL-28 (Melanoma)): 78.29%; growth percent (SK-MEL-2 (Melanoma)): 89.63%; growth percent (SF-539 (CNS Cancer)): 89.80%; growth percent (RXF 393 (Renal Cancer)): 70.77%; growth percent (HCT-116 (Colon Cancer)): 81.13%; growth percent (OVCAR-5 (Ovarian Cancer)): 106.81%; growth percent (K-562 (Leukemia)): 44.70%; growth percent (A498 (Renal Cancer)): 88.34%; growth percent (UACC-62 (Melanoma)): 65.53%; growth percent (SF-295 (CNS Cancer)): 57.51%; growth percent (SN12C (Renal Cancer)): 104.36%; growth percent (BT-549 (Breast Cancer)): 90.36%; growth percent [7]: 59.58%; growth percent (HCC-2998 (Colon Cancer)): 99.22%; growth percent (LOX IMVI (Melanoma)): 86.38%; growth percent (RPMI-8226 (Leukemia)): 94.65%

Q: How did the growth percent [1] turn out when `COc1ccc(/C=C/C(c2cc(OC)c(OC)c(OC)c2)n2ccnc2)cc1O` (stereo not drawn) [Compound 23b, (E)-5-(3-(1H-Imidazol-1-yl)-3-(3,4,5-trimethoxyphenyl)prop-1-en-1-yl)-2-methoxyphenol] was run?
A: 45.70%

Q: And the growth percent (SK-MEL-5 (Melanoma))?
A: 16.98%

Q: And the growth percent (SF-268 (CNS Cancer))?
A: 56.10%

Q: What about the mean growth percentage (leukemia panel) of the same molecule?
A: 11.2%

Q: And the growth percent [2]?
A: 88.36%

Q: And the growth percent (SNB-75 (CNS Cancer))?
A: 20.04%

Q: And the growth percent [3]?
A: 55.69%

Q: And the growth percent (SW-620 (Colon Cancer))?
A: 17.41%

Q: What about the growth percent (ACHN (Renal Cancer)) of the same molecule?
A: 46.34%

Q: And the growth percent [4]?
A: 81.22%

Q: And the growth percent (HT29 (Colon Cancer))?
A: 70.97%

Q: What about the growth percent (MCF7 (Breast Cancer)) of the same molecule?
A: 17.9% and 17.87%

Q: And the growth percent (MALME-3M (Melanoma))?
A: 57.72%

Q: What about the growth percent (HS 578T (Breast Cancer)) of the same molecule?
A: 32.05%

Q: What about the growth percent (CAKI-1 (Renal Cancer)) of the same molecule?
A: 60.21%

Q: What about the growth percent (HL-60 (TB) (Leukemia)) of the same molecule?
A: −36.59%

Q: What about the growth percent (T-47D (Breast Cancer)) of the same molecule?
A: 40.62%

Q: And the growth percent (KM12 (Colon Cancer))?
A: 29.04%

Q: And the growth percent (PC-3 (Prostate Cancer))?
A: 25.28%

Q: And the growth percent (OVCAR-3 (Ovarian Cancer))?
A: 4.86%

Q: What about the growth percent (M14 (Melanoma)) of the same molecule?
A: 18.61%

Q: What about the growth percent [5] of the same molecule?
A: 40.60%

Q: And the growth percent (786-0 (Renal Cancer))?
A: 34.04%

Q: What about the growth percent [6] of the same molecule?
A: 29.07%

Q: What about the growth percent (OVCAR-8 (Ovarian Cancer)) of the same molecule?
A: 40.97%

Q: And the growth percent (TK-10 (Renal Cancer))?
A: 84.45%

Q: What about the growth percent (SK-MEL-28 (Melanoma)) of the same molecule?
A: 58.86%

Q: And the growth percent (SK-MEL-2 (Melanoma))?
A: 41.65%

Q: What about the growth percent (SF-539 (CNS Cancer)) of the same molecule?
A: 23.09%

Q: And the growth percent (RXF 393 (Renal Cancer))?
A: 33.07%

Q: What about the growth percent (HCT-116 (Colon Cancer)) of the same molecule?
A: 16.67%

Q: And the growth percent (OVCAR-5 (Ovarian Cancer))?
A: 102.8%

Q: What about the growth percent (K-562 (Leukemia)) of the same molecule?
A: 13.63%

Q: And the growth percent (A498 (Renal Cancer))?
A: 67.46%

Q: What about the growth percent (UACC-62 (Melanoma)) of the same molecule?
A: 36.37%

Q: And the growth percent (SF-295 (CNS Cancer))?
A: 16.59%

Q: And the growth percent (SN12C (Renal Cancer))?
A: 57.15%

Q: And the growth percent (BT-549 (Breast Cancer))?
A: 44.34%

Q: What about the growth percent [7] of the same molecule?
A: 30.49%

Q: And the growth percent (HCC-2998 (Colon Cancer))?
A: 76.97%

Q: What about the growth percent (LOX IMVI (Melanoma)) of the same molecule?
A: 46.09%

Q: And the growth percent (RPMI-8226 (Leukemia))?
A: 15.14%
